# Results reported in patent US20260022142A1, “MACROCYCLIC IMMUNOMODULATORS” (Bristol-Myers Squibb Company, priority 2022, published 2026).
# Bridge positions count the residues as written; N and C are the ends. Square brackets hold non-standard residues; d marks the D form. Peptide text beside a SMILES is read from it. * marks the point of attachment. Phe(F5) = N[C@@H](Cc1c(F)c(F)c(F)c(F)c1F)C(=O)O; Phe(4-COOH) = N[C@@H](Cc1ccc(C(=O)O)cc1)C(=O)O; Phe(3,5-F2) = N[C@@H](Cc1cc(F)cc(F)c1)C(=O)O; Phe(2,4-F2) = N[C@@H](Cc1ccc(F)cc1F)C(=O)O; Bip = N[C@@H](Cc1ccc(-c2ccccc2)cc1)C(=O)O; Phe(2-Cl) = N[C@@H](Cc1ccccc1Cl)C(=O)O; Phe(3-F) = N[C@@H](Cc1cccc(F)c1)C(=O)O; Phe(3-Me) = Cc1cccc(C[C@H](N)C(=O)O)c1; Phe(4-F) = N[C@@H](Cc1ccc(F)cc1)C(=O)O; Phe(2-Me) = Cc1ccccc1C[C@H](N)C(=O)O; Val(3-OH) = CC(C)(O)[C@H](N)C(=O)O; hCha = N[C@@H](CCC1CCCCC1)C(=O)O; 4Pal = N[C@@H](Cc1ccncc1)C(=O)O; Cha = N[C@@H](CC1CCCCC1)C(=O)O; Ahp(2) = CCCCC[C@H](N)C(=O)O; Carboxymethyl = O=C(O)C*; Orn = NCCC[C@H](N)C(=O)O; Pra = C#CC[C@H](N)C(=O)O; Aun = NCCCCCCCCCCC(=O)O; Dab = NCC[C@H](N)C(=O)O; Dap = NC[C@H](N)C(=O)O; AEEA = NCCOCCOCC(=O)O
# Biological target: T1, PD-1/PD-L1 interaction (PE-labeled human PD-L1-Ig binding to Jurkat cell line over-expressing human PD-1) (Homo sapiens, UniProt Q15116)
# T1 construct: expressed in transfected cells; host or cells: Jurkat
# T1 sequence (Q15116 25-288): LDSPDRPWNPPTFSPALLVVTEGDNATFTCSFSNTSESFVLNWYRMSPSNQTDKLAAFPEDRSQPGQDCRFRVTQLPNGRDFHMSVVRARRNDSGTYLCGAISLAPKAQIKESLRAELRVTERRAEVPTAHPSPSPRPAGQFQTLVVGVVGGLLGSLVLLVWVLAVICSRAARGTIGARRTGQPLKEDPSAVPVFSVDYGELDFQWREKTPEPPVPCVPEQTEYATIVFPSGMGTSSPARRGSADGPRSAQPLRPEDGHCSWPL
# Experiment: Jurkat-PD-1 Cell Binding High-Content Screening Assay (CBA)
# Format: cell-based
# Details: Jurkat cell line over-expressing human PD-1; PE-labeled PD-L1-Ig 20 nM final; read-out: Jurkat hPD1-PDL1 IC50
# Procedure, shortened: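 Read-out is high-content imaging of cell-bound phycoerythrin-tagged PD-L1-Ig on fixed, Hoechst-counterstained Jurkat cells that over-express human PD-1. Compound exposure lasts 2 h at 37° C before the labeled ligand (20 nM final) is added for a further hour.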
row,Structure (SMILES),IC50 [nM]
1,Cc1cccc(C[C@@H]2NC(=O)[C@H](CC(=O)O)NC(=O)[C@H](Cc3ccc(OCC(=O)O)cc3)NC(=O)[C@H](CN)NC(=O)CSC[C@@H](C(=O)N[C@@H](CCN)C(=O)NCCOCCOCC(=O)NCCCCCCCCCCC(=O)O)NC(=O)[C@H](CCC(=O)O)NC(=O)[C@H](C(C)C)NC(=O)[C@H](Cc3cccc(F)c3)NC(=O)[C@H](CCN)NC(=O)[C@@H](CC(C)C)NC(=O)[C@H](CCCN)NC(=O)[C@H](Cc3ccc(OCC(=O)O)cc3)NC(=O)[C@H](Cc3ccc(-c4ccccc4)cc3)NC(=O)[C@H](Cc3ccc(C(=O)O)cc3)NC2=O)c1 [Compound 1268] ({CH2CO}-[Dap]Y(Carboxymethyl)D[Phe(3-Me)][Phe(4-COOH)][Bip]Y(Carboxymethyl)[Orn][dL][Dab][Phe(3-F)]VEC[Dab][AEEA][Aun]-OH; thioether N-14),13.2
2,"Cc1cccc(C[C@@H]2NC(=O)[C@H](CC(=O)O)NC(=O)[C@H](Cc3ccc(OCC(=O)O)cc3)NC(=O)[C@H](CN)NC(=O)CSC[C@@H](C(=O)N[C@@H](CCN)C(=O)NCCOCCOCC(=O)NCCCCCCCCCCC(=O)O)NC(=O)[C@H](CCC(=O)O)NC(=O)[C@H](C(C)C)NC(=O)[C@H](Cc3cc(F)cc(F)c3)NC(=O)[C@H](CCN)NC(=O)[C@@H](CC(C)C)NC(=O)[C@H](CCCN)NC(=O)[C@H](Cc3ccc(OCC(=O)O)cc3)NC(=O)[C@H](Cc3ccc(-c4ccccc4)cc3)NC(=O)[C@H](Cc3ccc(C(=O)O)cc3)NC2=O)c1 [Compound 1269] ({CH2CO}-[Dap]Y(Carboxymethyl)D[Phe(3-Me)][Phe(4-COOH)][Bip]Y(Carboxymethyl)[Orn][dL][Dab][Phe(3,5-F2)]VEC[Dab][AEEA][Aun]-OH; thioether N-14)",11.4
3,Cc1cccc(C[C@@H]2NC(=O)[C@H](CC(=O)O)NC(=O)[C@H](Cc3ccc(OCC(=O)O)cc3)NC(=O)[C@H](CN)NC(=O)CSC[C@@H](C(=O)N[C@@H](CCN)C(=O)NCCOCCOCC(=O)NCCCCCCCCCCC(=O)O)NC(=O)[C@H](CCC(=O)O)NC(=O)[C@H](C(C)C)NC(=O)[C@H](Cc3ccc(F)cc3)NC(=O)[C@H](CCN)NC(=O)[C@@H](CC(C)C)NC(=O)[C@H](CCCN)NC(=O)[C@H](Cc3ccc(OCC(=O)O)cc3)NC(=O)[C@H](Cc3ccc(-c4ccccc4)cc3)NC(=O)[C@H](Cc3ccc(C(=O)O)cc3)NC2=O)c1 [Compound 1270] ({CH2CO}-[Dap]Y(Carboxymethyl)D[Phe(3-Me)][Phe(4-COOH)][Bip]Y(Carboxymethyl)[Orn][dL][Dab][Phe(4-F)]VEC[Dab][AEEA][Aun]-OH; thioether N-14),48.4
4,Cc1cccc(C[C@@H]2NC(=O)[C@H](CC(=O)O)NC(=O)[C@H](Cc3ccc(OCC(=O)O)cc3)NC(=O)[C@H](CN)NC(=O)CSC[C@@H](C(=O)N[C@@H](CCN)C(=O)NCCOCCOCC(=O)NCCCCCCCCCCC(=O)O)NC(=O)[C@H](CCC(=O)O)NC(=O)[C@H](C(C)C)NC(=O)[C@H](Cc3cccc(C)c3)NC(=O)[C@H](CCN)NC(=O)[C@@H](CC(C)C)NC(=O)[C@H](CCCN)NC(=O)[C@H](Cc3ccc(OCC(=O)O)cc3)NC(=O)[C@H](Cc3ccc(-c4ccccc4)cc3)NC(=O)[C@H](Cc3ccc(C(=O)O)cc3)NC2=O)c1 [Compound 1271] ({CH2CO}-[Dap]Y(Carboxymethyl)D[Phe(3-Me)][Phe(4-COOH)][Bip]Y(Carboxymethyl)[Orn][dL][Dab][Phe(3-Me)]VEC[Dab][AEEA][Aun]-OH; thioether N-14),19.9
5,"Cc1cccc(C[C@@H]2NC(=O)[C@H](CC(=O)O)NC(=O)[C@H](Cc3ccc(OCC(=O)O)cc3)NC(=O)[C@H](CN)NC(=O)CSC[C@@H](C(=O)N[C@@H](CCN)C(=O)NCCOCCOCC(=O)NCCCCCCCCCCC(=O)O)NC(=O)[C@H](CCC(=O)O)NC(=O)[C@H](C(C)C)NC(=O)[C@H](Cc3ccc(F)cc3F)NC(=O)[C@H](CCN)NC(=O)[C@@H](CC(C)C)NC(=O)[C@H](CCCN)NC(=O)[C@H](Cc3ccc(OCC(=O)O)cc3)NC(=O)[C@H](Cc3ccc(-c4ccccc4)cc3)NC(=O)[C@H](Cc3ccc(C(=O)O)cc3)NC2=O)c1 [Compound 1272] ({CH2CO}-[Dap]Y(Carboxymethyl)D[Phe(3-Me)][Phe(4-COOH)][Bip]Y(Carboxymethyl)[Orn][dL][Dab][Phe(2,4-F2)]VEC[Dab][AEEA][Aun]-OH; thioether N-14)",74.2
6,Cc1cccc(C[C@@H]2NC(=O)[C@H](CC(=O)O)NC(=O)[C@H](Cc3ccc(OCC(=O)O)cc3)NC(=O)[C@H](CN)NC(=O)CSC[C@@H](C(=O)N[C@@H](CCN)C(=O)NCCOCCOCC(=O)NCCCCCCCCCCC(=O)O)NC(=O)[C@H](CCC(=O)O)NC(=O)[C@H](C(C)C)NC(=O)[C@H](Cc3c(F)c(F)c(F)c(F)c3F)NC(=O)[C@H](CCN)NC(=O)[C@@H](CC(C)C)NC(=O)[C@H](CCCN)NC(=O)[C@H](Cc3ccc(OCC(=O)O)cc3)NC(=O)[C@H](Cc3ccc(-c4ccccc4)cc3)NC(=O)[C@H](Cc3ccc(C(=O)O)cc3)NC2=O)c1 [Compound 1273] ({CH2CO}-[Dap]Y(Carboxymethyl)D[Phe(3-Me)][Phe(4-COOH)][Bip]Y(Carboxymethyl)[Orn][dL][Dab][Phe(F5)]VEC[Dab][AEEA][Aun]-OH; thioether N-14),331
7,Cc1cccc(C[C@@H]2NC(=O)[C@H](CC(=O)O)NC(=O)[C@H](Cc3ccc(OCC(=O)O)cc3)NC(=O)[C@H](CN)NC(=O)CSC[C@@H](C(=O)N[C@@H](CCN)C(=O)NCCOCCOCC(=O)NCCCCCCCCCCC(=O)O)NC(=O)[C@H](CCC(=O)O)NC(=O)[C@H](C(C)C)NC(=O)[C@H](Cc3ccccc3C)NC(=O)[C@H](CCN)NC(=O)[C@@H](CC(C)C)NC(=O)[C@H](CCCN)NC(=O)[C@H](Cc3ccc(OCC(=O)O)cc3)NC(=O)[C@H](Cc3ccc(-c4ccccc4)cc3)NC(=O)[C@H](Cc3ccc(C(=O)O)cc3)NC2=O)c1 [Compound 1274] ({CH2CO}-[Dap]Y(Carboxymethyl)D[Phe(3-Me)][Phe(4-COOH)][Bip]Y(Carboxymethyl)[Orn][dL][Dab][Phe(2-Me)]VEC[Dab][AEEA][Aun]-OH; thioether N-14),9.8
8,CCCCC[C@@H]1NC(=O)[C@H](CCN)NC(=O)[C@@H](CC(C)C)NC(=O)[C@H](CCCN)NC(=O)[C@H](Cc2ccc(OCC(=O)O)cc2)NC(=O)[C@H](Cc2ccc(-c3ccccc3)cc2)NC(=O)[C@H](Cc2ccc(C(=O)O)cc2)NC(=O)[C@H](Cc2cccc(C)c2)NC(=O)[C@H](CC(=O)O)NC(=O)[C@H](Cc2ccc(OCC(=O)O)cc2)NC(=O)[C@H](CN)NC(=O)CSC[C@@H](C(=O)N[C@@H](CCN)C(=O)NCCOCCOCC(=O)NCCCCCCCCCCC(=O)O)NC(=O)[C@H](CCC(=O)O)NC(=O)[C@H](C(C)C)NC1=O [Compound 1275] ({CH2CO}-[Dap]Y(Carboxymethyl)D[Phe(3-Me)][Phe(4-COOH)][Bip]Y(Carboxymethyl)[Orn][dL][Dab][Ahp(2)]VEC[Dab][AEEA][Aun]-OH; thioether N-14),47.5
9,Cc1cccc(C[C@@H]2NC(=O)[C@H](CC(=O)O)NC(=O)[C@H](Cc3ccc(OCC(=O)O)cc3)NC(=O)[C@H](CN)NC(=O)CSC[C@@H](C(=O)N[C@@H](CCN)C(=O)NCCOCCOCC(=O)NCCCCCCCCCCC(=O)O)NC(=O)[C@H](CCC(=O)O)NC(=O)[C@H](C(C)C)NC(=O)[C@H](CCC3CCCCC3)NC(=O)[C@H](CCN)NC(=O)[C@@H](CC(C)C)NC(=O)[C@H](CCCN)NC(=O)[C@H](Cc3ccc(OCC(=O)O)cc3)NC(=O)[C@H](Cc3ccc(-c4ccccc4)cc3)NC(=O)[C@H](Cc3ccc(C(=O)O)cc3)NC2=O)c1 [Compound 1276] ({CH2CO}-[Dap]Y(Carboxymethyl)D[Phe(3-Me)][Phe(4-COOH)][Bip]Y(Carboxymethyl)[Orn][dL][Dab][hCha]VEC[Dab][AEEA][Aun]-OH; thioether N-14),49.9
10,Cc1cccc(C[C@@H]2NC(=O)[C@H](CC(=O)O)NC(=O)[C@H](Cc3ccc(OCC(=O)O)cc3)NC(=O)[C@H](CN)NC(=O)CSC[C@@H](C(=O)N[C@@H](CCN)C(=O)NCCOCCOCC(=O)NCCCCCCCCCCC(=O)O)NC(=O)[C@H](CCC(=O)O)NC(=O)[C@H](C(C)C)NC(=O)[C@H](Cc3ccccc3Cl)NC(=O)[C@H](CCN)NC(=O)[C@@H](CC(C)C)NC(=O)[C@H](CCCN)NC(=O)[C@H](Cc3ccc(OCC(=O)O)cc3)NC(=O)[C@H](Cc3ccc(-c4ccccc4)cc3)NC(=O)[C@H](Cc3ccc(C(=O)O)cc3)NC2=O)c1 [Compound 1277] ({CH2CO}-[Dap]Y(Carboxymethyl)D[Phe(3-Me)][Phe(4-COOH)][Bip]Y(Carboxymethyl)[Orn][dL][Dab][Phe(2-Cl)]VEC[Dab][AEEA][Aun]-OH; thioether N-14),14.4
11,C#CC[C@H](NC(=O)[C@H](CCN)NC(=O)[C@@H]1CSCC(=O)N[C@@H](Cc2ccncc2)C(=O)N[C@@H](Cc2ccc(OCC(=O)O)cc2)C(=O)N[C@@H](CC(=O)O)C(=O)N[C@@H](Cc2cccc(C)c2)C(=O)N[C@@H](Cc2ccc(OC)cc2)C(=O)N[C@@H](Cc2ccc(-c3ccccc3)cc2)C(=O)N[C@@H](Cc2ccc(OCC(=O)O)cc2)C(=O)N[C@@H](CCCN)C(=O)N[C@H](CC(C)C)C(=O)N[C@@H](CCN)C(=O)N[C@@H](CC2CCCCC2)C(=O)N[C@@H](C(C)(C)O)C(=O)N[C@@H](CO)C(=O)N1)C(=O)NCCCCCCCCCCC(=O)O [Compound 1278] ({CH2CO}-[4Pal]Y(Carboxymethyl)D[Phe(3-Me)]Y(Me)[Bip]Y(Carboxymethyl)[Orn][dL][Dab][Cha][Val(3-OH)]SC[Dab][Pra][Aun]-OH; thioether N-14),140
